Source: patent publication US20190030036A1, “PHOSPHODIESTERASE INHIBITOR TREATMENT” (Cyrano Therapeutics, Inc., priority 2013, published 2019)
Marks after values point to notes of the source that are not given here.

Tested on: patients with hyposmia
Assay: Smell function (DT, RT, ME, H) by forced-choice, three-stimuli, stepwise-staircase technique with four odors; open trial of oral theophylline
Format: in vivo, human
Description: Patients initially reported their sensory dysfunction as either loss of taste (e.g., flavor) and/or smell function. This subjective response was documented by objective psychophysical measurements of olfactory function administered to each patient by use of a forced-choice, three-stimuli, stepwise-staircase technique in a fixed, controlled design (1, 53). Efficacy of this technique and results of testing were previously documented in a double-blind clinical trial (53). Four odors were used; they were pyridine (dead-fish odor), nitrobenzene (bitter-almond odor), thiophene (petroleum-like odor) and amyl acetate (banana-oil odor). Detection thresholds (DT), recognition thresholds (RT) and magnitude estimation (ME) values for each odor were determined as previously described (1, 53). Thresholds were converted into bottle units (BU) as previously described (53) and results reported as M±SEM of correct responses for each odor in each treatment group; ME was reported in % and results calculated to obtain M±SEM for each treatment group for all correct responses using data for the four highest odor concentrations presented (from 10^−2M—an absolute odor concentration).
In addition, each patient graded the hedonic (H) value of each odor presented for these same odor concentrations (from 10^−2M—an absolute odor concentration using a −100−0−+100 scale). […] Results were obtained by calculating the arithmetical sum of each correct recognition response for each odor with respect to its pleasantness, unpleasantness or neutrality. Arithmetic M±SEM were obtained for each treatment group for each odor presented.
After determination of hyposmia, patients were treated in an open label, fixed design, controlled open trial. Patients were given an oral extended release theophylline in divided daily doses taken in the middle of breakfast and lunch. All patients were initially given 200 mg of theophylline; changes in this dose were made based upon subjective responses to therapy. If at a subsequent return visit, patients reported ≥5% subjective improvement in overall smell function, they continued on this same dose of theophylline and were reevaluated after four to six months of continued treatment. Results from any subsequent return from these improved patients were not included in any subsequent data report. All subsequent comparisons between treated and untreated patients were made only between those patients continuing in the study compared to their own measurements obtained in the untreated state. If patients reported <5% subjective improvement, their theophylline dose was increased by 200 mg daily and they were scheduled for retesting at the study site after two to four months at this new dosage. For patients that reported <5% improvement, this sequence continued until patients reached 800 mg of theophylline, at which time the study was considered completed.
Patients returned for reevaluation after two to four months of treatment. Measurements of blood serum theophylline were measured by a fluorescence polarization assay (Abbott, Chicago, Ill.). At this time, subjective changes in smell function were measured independently (compared to patient's memory of previous normal smell function monitored by use of the patients' daily measurements) using the scale from −100−0-+100 previously described. After independently recording their subjective responses, smell function was measured for all four odors with DT, RT, ME and H determined without recourse to prior measurements.
Since data for all measurements from each patient group (local or distant) on each dose level were combined mean and SEM for each measurement (DT, RT, ME, H) of smell function for each treatment group were calculated on this basis. Differences in measurements between before treatment and each treatment level were calculated and significance of differences estimated using Student t tests (values p<0.05 considered significant). […]

[1] = amyl acetate, oral theophylline 200 mg
[2] = amyl acetate, oral theophylline 200 mg daily, all patients (199)
[3] = amyl acetate, oral theophylline 200 mg, Type I hyposmia (57)
[4] = amyl acetate, oral theophylline 200 mg, Type II hyposmia (138)
[5] = amyl acetate, oral theophylline 200 mg, Type III hyposmia (4)
[6] = amyl acetate, oral theophylline 400 mg
[7] = amyl acetate, oral theophylline 400 mg daily, all patients (120)
[8] = amyl acetate, oral theophylline 400 mg, Type I hyposmia (33)
[9] = amyl acetate, oral theophylline 400 mg, Type II hyposmia (85)
[10] = amyl acetate, oral theophylline 400 mg, Type III hyposmia (2)
[11] = amyl acetate, oral theophylline 600 mg daily, all patients (160)
[12] = amyl acetate, oral theophylline 600 mg, Type I hyposmia (51)
[13] = amyl acetate, oral theophylline 600 mg, Type II hyposmia (105)
[14] = amyl acetate, oral theophylline 600 mg, Type III hyposmia (4)
[15] = amyl acetate, oral theophylline 800 mg daily, all patients (28)
[16] = amyl acetate, oral theophylline 800 mg, Type I hyposmia (12)
[17] = amyl acetate, oral theophylline 800 mg, Type II hyposmia (16)
[18] = nitrobenzene, oral theophylline 200 mg
[19] = nitrobenzene, oral theophylline 200 mg daily, all patients (199)
[20] = nitrobenzene, oral theophylline 200 mg, Type I hyposmia (57)
[21] = nitrobenzene, oral theophylline 200 mg, Type II hyposmia (138)
[22] = nitrobenzene, oral theophylline 200 mg, Type III hyposmia (4)
[23] = nitrobenzene, oral theophylline 400 mg
[24] = nitrobenzene, oral theophylline 400 mg daily, all patients (120)
[25] = nitrobenzene, oral theophylline 400 mg, Type I hyposmia (33)
[26] = nitrobenzene, oral theophylline 400 mg, Type II hyposmia (85)
[27] = nitrobenzene, oral theophylline 400 mg, Type III hyposmia (2)
[28] = nitrobenzene, oral theophylline 600 mg daily, all patients (160)
[29] = nitrobenzene, oral theophylline 600 mg, Type I hyposmia (51)
[30] = nitrobenzene, oral theophylline 600 mg, Type II hyposmia (105)
[31] = nitrobenzene, oral theophylline 600 mg, Type III hyposmia (4)
[32] = nitrobenzene, oral theophylline 800 mg daily, all patients (28)
[33] = nitrobenzene, oral theophylline 800 mg, Type I hyposmia (12)
[34] = nitrobenzene, oral theophylline 800 mg, Type II hyposmia (16)

SMILES: Cn1c(=O)c2[nH]cnc2n(C)c1=O [theophylline]
- increase of H values (more pleasant) [1]: 2%
- increase of ME values [1]: 5%
- DT, detection threshold [2]: 7.9 ± 0.2^c BU
- H, hedonic estimation [2]: 3 ± 1%
- ME, magnitude estimation [2]: 15 ± 2^d %
- RT, recognition threshold [2]: 9.9 ± 0.2^c BU
- DT, detection threshold [3]: 10.5 ± 0.3^d BU
- H, hedonic value [3]: 4 ± 2^a %
- ME, magnitude estimation [3]: 6 ± 2^a %
- RT, recognition threshold [3]: 11.3 ± 0.2^ BU
- DT, detection threshold [4]: 7.0 ± 0.3^ BU
- H, hedonic value [4]: 3 ± 2^ %
- ME, magnitude estimation [4]: 19 ± 2^ %
- RT, recognition threshold [4]: 9.3 ± 0.2^ BU
- DT, detection threshold [5]: 2.8 ± 0.5 BU
- H, hedonic value [5]: 14 ± 13%
- ME, magnitude estimation [5]: 32 ± 10%
- RT, recognition threshold [5]: 5.2 ± 1.6 BU
- ME increases [6]: 8%
- change of H values (became more pleasant) [6]: 1%
- DT, detection threshold [7]: 7.1 ± 0.3^b BU
- H, hedonic estimation [7]: 3 ± 2^ %
- ME, magnitude estimation [7]: 18 ± 2^c %
- RT, recognition threshold [7]: 9.3 ± 0.3^b BU
- DT, detection threshold [8]: 10.1 ± 0.5^a BU
- H, hedonic value [8]: 5 ± 3^a %
- ME, magnitude estimation [8]: 7 ± 3^a %
- RT, recognition threshold [8]: 11.2 ± 0.3^ BU
- DT, detection threshold [9]: 6.1 ± 0.4^a BU
- H, hedonic value [9]: 0.3 ± 2.8^ %
- ME, magnitude estimation [9]: 21 ± 3^ %
- RT, recognition threshold [9]: 8.8 ± 0.4^a BU
- DT, detection threshold [10]: 2 BU
- H, hedonic value [10]: 75%
- ME, magnitude estimation [10]: 75%
- RT, recognition threshold [10]: 3 BU
- DT, detection threshold [11]: 7.8 ± 0.3^a BU
- H, hedonic estimation [11]: 4 ± 1^ %
- ME, magnitude estimation [11]: 15 ± 2^c %
- RT, recognition threshold [11]: 9.6 ± 0.2^a BU
- DT, detection threshold [12]: 10.1 ± 0.3^a BU
- H, hedonic value [12]: −0.4 ± 1^ %
- ME, magnitude estimation [12]: 5 ± 2^a %
- RT, recognition threshold [12]: 11.1 ± 0.2^ BU
- DT, detection threshold [13]: 6.8 ± 0.3^a BU
- H, hedonic value [13]: 7 ± 2^ %
- ME, magnitude estimation [13]: 19 ± 2^ %
- RT, recognition threshold [13]: 8.9 ± 0.3^a BU
- DT, detection threshold [14]: 2.5 ± 1.0 BU
- H, hedonic value [14]: 28 ± 19%
- ME, magnitude estimation [14]: 31 ± 17%
- RT, recognition threshold [14]: 4.8 ± 1.7 BU
- DT, detection threshold [15]: 7.2 ± 0.8^ BU
- H, hedonic estimation [15]: 8 ± 5^ %
- ME, magnitude estimation [15]: 24 ± 2^a %
- RT, recognition threshold [15]: 9.0 ± 0.5^b BU
- DT, detection threshold [16]: 10.6 ± 0.5^ BU
- H, hedonic value [16]: −1 ± 4^ %
- ME, magnitude estimation [16]: 5 ± 3^a %
- RT, recognition threshold [16]: 11.6 ± 0.4^ BU
- DT, detection threshold [17]: 4.6 ± 0.7^a BU
- H, hedonic value [17]: 13 ± 9^ %
- ME, magnitude estimation [17]: 38 ± 6^c %
- RT, recognition threshold [17]: 7.1 ± 0.6^a BU
- increase of H values (more pleasant) [18]: 2%
- increase of ME values [18]: 5%
- DT, detection threshold [19]: 7.8 ± 0.2^d BU
- H, hedonic estimation [19]: 6 ± 2^a %
- ME, magnitude estimation [19]: 17 ± 2 ^ %
- RT, recognition threshold [19]: 9.5 ± 0.2^a BU
- DT, detection threshold [20]: 10.3 ± 0.3^a BU
- H, hedonic value [20]: 4 ± 2^a %
- ME, magnitude estimation [20]: 5 ± 2^a %
- RT, recognition threshold [20]: 11.2 ± 0.2^d BU
- DT, detection threshold [21]: 6.9 ± 0.3^a BU
- H, hedonic value [21]: 7 ± 2^ %
- ME, magnitude estimation [21]: 22 ± 2^ %
- RT, recognition threshold [21]: 8.8 ± 0.3^ BU
- DT, detection threshold [22]: 3.8 ± 0.7 BU
- H, hedonic value [22]: 13 ± 12%
- ME, magnitude estimation [22]: 33 ± 8%
- RT, recognition threshold [22]: 5.0 ± 0.6 BU
- ME increases [23]: 11%
- change of H values (became more pleasant) [23]: 4%
- DT, detection threshold [24]: 7.2 ± 0.3^c BU
- H, hedonic estimation [24]: 8 ± 3^a %
- ME, magnitude estimation [24]: 23 ± 2^a %
- RT, recognition threshold [24]: 8.9 ± 0.3^b BU
- DT, detection threshold [25]: 9.8 ± 0.5^a BU
- H, hedonic value [25]: 3 ± 3^a %
- ME, magnitude estimation [25]: 8 ± 3^a %
- RT, recognition threshold [25]: 10.9 ± 0.4^e BU
- DT, detection threshold [26]: 6.3 ± 0.4^a BU
- H, hedonic value [26]: 11 ± 3^ %
- ME, magnitude estimation [26]: 27 ± 3^a %
- RT, recognition threshold [26]: 8.2 ± 0.4^a BU
- DT, detection threshold [27]: 2.5 BU
- H, hedonic value [27]: −62%
- ME, magnitude estimation [27]: 79%
- RT, recognition threshold [27]: 4.0 BU
- DT, detection threshold [28]: 7.8 ± 0.3^a BU
- H, hedonic estimation [28]: 8 ± 2^d %
- ME, magnitude estimation [28]: 18 ± 2^d %
- RT, recognition threshold [28]: 9.1 ± 0.2^c BU
- DT, detection threshold [29]: 9.9 ± 0.4^c BU
- H, hedonic value [29]: 2 ± 2^ %
- ME, magnitude estimation [29]: 6 ± 2^a %
- RT, recognition threshold [29]: 10.8 ± 0.3^ BU
- DT, detection threshold [30]: 6.8 ± 0.3^a BU
- H, hedonic value [30]: 11 ± 2^ %
- ME, magnitude estimation [30]: 24 ± 2^ %
- RT, recognition threshold [30]: 8.4 ± 0.3^ BU
- DT, detection threshold [31]: 3.8 ± 0.9 BU
- H, hedonic value [31]: 12 ± 16%
- ME, magnitude estimation [31]: 33 ± 13%
- RT, recognition threshold [31]: 4.5 ± 1.3 BU
- DT, detection threshold [32]: 7.0 ± 0.8^d BU
- H, hedonic estimation [32]: 13 ± 7 ^ %
- ME, magnitude estimation [32]: 25 ± 6 ^ %
- RT, recognition threshold [32]: 7.8 ± 0.8^d BU
- DT, detection threshold [33]: 10.1 ± 0.8^ BU
- H, hedonic value [33]: 2 ± 2^a %
- ME, magnitude estimation [33]: 4 ± 3^a %
- RT, recognition threshold [33]: 11.3 ± 0.7^ BU
- DT, detection threshold [34]: 4.6 ± 0.9^a BU
- H, hedonic value [34]: 22 ± 11^ %
- ME, magnitude estimation [34]: 42 ± 8^b %
- RT, recognition threshold [34]: 5.1 ± 0.9^a BU
- total mean increase of ME for all odors (oral theophylline 200 mg): 5.1%
- increase of H values for amyl acetate (oral theophylline 200 mg daily, not statistically significant): 50%
- total mean increase of ME for all odors (oral theophylline 400 mg): 10.4%
- decrease of H values for thiophene (oral theophylline 400 mg daily): 40%
- increase of H values for nitrobenzene (oral theophylline 400 mg daily, not statistically significant): 50%
